Assay results as given in PubChem BioAssay (NCI).
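Test compounds were applied to cells in 96-well plates for 48 hours at 5 doses. Abbreviation: GI50, concentration required for 50% inhibition of growth. TGI: concentration producing complete growth inhibition.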

Key:
Assay in all cases: NCI-60 cell line screen, 48 h
MOLT-4 leukemia = test system: MOLT-4 leukemia
RXF 393 renal = test system: RXF 393 renal
OVCAR-8 ovarian = test system: OVCAR-8 ovarian
DU-145 prostate = test system: DU-145 prostate
LOX IMVI melanoma = test system: LOX IMVI melanoma
A549 NSCLC = test system: A549 NSCLC
SK-MEL-2 melanoma = test system: SK-MEL-2 melanoma
U251 CNS = test system: U251 CNS
OVCAR-3 ovarian = test system: OVCAR-3 ovarian
OVCAR-4 ovarian = test system: OVCAR-4 ovarian
MCF7 breast = test system: MCF7 breast
MALME-3M melanoma = test system: MALME-3M melanoma
SNB-75 CNS = test system: SNB-75 CNS
RPMI-8226 leukemia = test system: RPMI-8226 leukemia
MDA-MB-231 breast = test system: MDA-MB-231 breast
MDA-MB-435 = test system: MDA-MB-435
BT-549 breast = test system: BT-549 breast
SK-MEL-28 melanoma = test system: SK-MEL-28 melanoma
786-0 renal = test system: 786-0 renal
UACC-62 melanoma = test system: UACC-62 melanoma
HL-60(TB) leukemia = test system: HL-60(TB) leukemia
SK-MEL-5 melanoma = test system: SK-MEL-5 melanoma
HCC-2998 colon = test system: HCC-2998 colon
HT29 colon = test system: HT29 colon
CCRF-CEM leukemia = test system: CCRF-CEM leukemia
M14 melanoma = test system: M14 melanoma
SW-620 colon = test system: SW-620 colon
OVCAR-5 ovarian = test system: OVCAR-5 ovarian
CAKI-1 renal = test system: CAKI-1 renal
EKVX NSCLC = test system: EKVX NSCLC
HOP-92 NSCLC = test system: HOP-92 NSCLC
T-47D breast = test system: T-47D breast
NCI-H522 lung = test system: NCI-H522 lung
KM12 colon = test system: KM12 colon
A498 renal = test system: A498 renal
SF-295 CNS = test system: SF-295 CNS
SF-268 CNS = test system: SF-268 CNS
UO-31 renal = test system: UO-31 renal
SNB-19 CNS = test system: SNB-19 CNS
ACHN renal = test system: ACHN renal
HCT-15 colon = test system: HCT-15 colon
NCI-H226 lung = test system: NCI-H226 lung
HCT-116 colon = test system: HCT-116 colon
SR leukemia = test system: SR leukemia
PC-3 prostate = test system: PC-3 prostate
K-562 leukemia = test system: K-562 leukemia
NCI-H460 lung = test system: NCI-H460 lung
SN12C renal = test system: SN12C renal
NCI-H23 lung = test system: NCI-H23 lung
COLO 205 colon = test system: COLO 205 colon
SF-539 CNS = test system: SF-539 CNS
SK-OV-3 ovarian = test system: SK-OV-3 ovarian
HS 578T breast = test system: HS 578T breast
NCI/ADR-RES ovarian = test system: NCI/ADR-RES ovarian
TK-10 renal = test system: TK-10 renal
HOP-62 NSCLC = test system: HOP-62 NSCLC

`Cc1ccc(N(CC(=O)Nc2ccc(S(=O)(=O)NC3CCN(C)CC3)cc2)S(=O)(=O)c2ccc(Cl)cc2)cc1` was tested, and the GI50 (MOLT-4 leukemia) was 2.97 µM, the TGI (MOLT-4 leukemia) was 10.1 µM and the GI50 (RXF 393 renal) was 1.65 µM. For the same molecule, the TGI (RXF 393 renal) was 3.84 µM, the GI50 (OVCAR-8 ovarian) was 3.61 µM and the TGI (OVCAR-8 ovarian) was 12.1 µM. The GI50 (DU-145 prostate) was 3.27 µM, the TGI (DU-145 prostate) was 11.2 µM and the GI50 (LOX IMVI melanoma) was 1.89 µM. The TGI (LOX IMVI melanoma) was 3.76 µM, the GI50 (A549 NSCLC) was 5 µM and the TGI (A549 NSCLC) was 16.3 µM. The GI50 (SK-MEL-2 melanoma) was 2.15 µM, the TGI (SK-MEL-2 melanoma) was 4.86 µM and the GI50 (U251 CNS) was 2.35 µM. For the same molecule, the TGI (U251 CNS) was 5.83 µM, the GI50 (OVCAR-3 ovarian) was 2.99 µM and the TGI (OVCAR-3 ovarian) was 8.77 µM. For the same molecule, the GI50 (OVCAR-4 ovarian) was 5.13 µM, the TGI (OVCAR-4 ovarian) was 19.7 µM and the GI50 (MCF7 breast) was 3.02 µM. For the same molecule, the TGI (MCF7 breast) was 13.1 µM, the GI50 (MALME-3M melanoma) was 1.72 µM and the TGI (MALME-3M melanoma) was 3.65 µM. It also gave a GI50 (SNB-75 CNS) of 2.95 µM, a TGI (SNB-75 CNS) of 15.7 µM and a GI50 (RPMI-8226 leukemia) of 2.71 µM. It also gave a TGI (RPMI-8226 leukemia) of 7.89 µM, a GI50 (MDA-MB-231 breast) of 1.87 µM and a TGI (MDA-MB-231 breast) of 4.68 µM. It also gave a GI50 (MDA-MB-435) of 1.86 µM, a TGI (MDA-MB-435) of 3.57 µM and a GI50 (BT-549 breast) of 12.6 µM. It also gave a TGI (BT-549 breast) of 27.8 µM, a GI50 (SK-MEL-28 melanoma) of 1.95 µM and a TGI (SK-MEL-28 melanoma) of 4.18 µM. It also gave a GI50 (786-0 renal) of 2.08 µM, a TGI (786-0 renal) of 5.23 µM and a GI50 (UACC-62 melanoma) of 1.74 µM. For the same molecule, the TGI (UACC-62 melanoma) was 3.59 µM, the GI50 (HL-60(TB) leukemia) was 2.21 µM and the TGI (HL-60(TB) leukemia) was 4.93 µM. The GI50 (SK-MEL-5 melanoma) was 1.83 µM, the TGI (SK-MEL-5 melanoma) was 3.29 µM and the GI50 (HCC-2998 colon) was 2.1 µM. For the same molecule, the TGI (HCC-2998 colon) was 5.25 µM, the GI50 (HT29 colon) was 2.88 µM and the TGI (HT29 colon) was 7.5 µM. For the same molecule, the GI50 (CCRF-CEM leukemia) was 2.94 µM, the TGI (CCRF-CEM leukemia) was 11.1 µM and the GI50 (M14 melanoma) was 1.79 µM. The TGI (M14 melanoma) was 3.42 µM, the GI50 (SW-620 colon) was 1.84 µM and the TGI (SW-620 colon) was 3.61 µM. It also gave a GI50 (OVCAR-5 ovarian) of 4.04 µM, a TGI (OVCAR-5 ovarian) of 17.1 µM and a GI50 (CAKI-1 renal) of 14.7 µM. It also gave a TGI (CAKI-1 renal) of 28.4 µM, a GI50 (EKVX NSCLC) of 5.09 µM and a TGI (EKVX NSCLC) of 19.8 µM. For the same molecule, the GI50 (HOP-92 NSCLC) was 1.86 µM, the TGI (HOP-92 NSCLC) was 8.64 µM and the GI50 (T-47D breast) was 2.03 µM. It also gave a TGI (T-47D breast) of 4.47 µM, a GI50 (NCI-H522 lung) of 2.24 µM and a TGI (NCI-H522 lung) of 4.62 µM. The GI50 (KM12 colon) was 2.85 µM, the TGI (KM12 colon) was 8.25 µM and the GI50 (A498 renal) was 13.4 µM. It also gave a TGI (A498 renal) of 28.8 µM, a GI50 (SF-295 CNS) of 2.12 µM and a TGI (SF-295 CNS) of 5.49 µM. It also gave a GI50 (SF-268 CNS) of 2.67 µM, a TGI (SF-268 CNS) of 8.26 µM and a GI50 (UO-31 renal) of 14.7 µM. The TGI (UO-31 renal) was 30.3 µM, the GI50 (SNB-19 CNS) was 4.27 µM and the TGI (SNB-19 CNS) was 21.5 µM. For the same molecule, the GI50 (ACHN renal) was 12 µM, the TGI (ACHN renal) was 27.6 µM and the GI50 (HCT-15 colon) was 11.9 µM. The TGI (HCT-15 colon) was 27.5 µM, the GI50 (NCI-H226 lung) was 5.37 µM and the TGI (NCI-H226 lung) was 23.4 µM. It also gave a GI50 (HCT-116 colon) of 1.69 µM, a TGI (HCT-116 colon) of 3.2 µM and a GI50 (SR leukemia) of 2.33 µM. It also gave a TGI (SR leukemia) of 7.46 µM, a GI50 (PC-3 prostate) of 2.86 µM and a TGI (PC-3 prostate) of 10.7 µM. The GI50 (K-562 leukemia) was 2.23 µM, the TGI (K-562 leukemia) was 5 µM and the GI50 (NCI-H460 lung) was 2.02 µM. The TGI (NCI-H460 lung) was 4 µM, the GI50 (SN12C renal) was 3.05 µM and the TGI (SN12C renal) was 13.1 µM. The GI50 (NCI-H23 lung) was 10.1 µM, the TGI (NCI-H23 lung) was 24.5 µM and the GI50 (COLO 205 colon) was 1.89 µM. For the same molecule, the TGI (COLO 205 colon) was 3.89 µM, the GI50 (SF-539 CNS) was 1.85 µM and the TGI (SF-539 CNS) was 3.52 µM. The GI50 (SK-OV-3 ovarian) was 5.45 µM, the TGI (SK-OV-3 ovarian) was 17.8 µM and the GI50 (HS 578T breast) was 2.27 µM. For the same molecule, the TGI (HS 578T breast) was 6.74 µM, the GI50 (NCI/ADR-RES ovarian) was 16.8 µM and the TGI (NCI/ADR-RES ovarian) was 35.5 µM. It also gave a GI50 (TK-10 renal) of 13.7 µM, a TGI (TK-10 renal) of 27 µM and a GI50 (HOP-62 NSCLC) of 3.96 µM. It also gave a TGI (HOP-62 NSCLC) of 14.2 µM.
